Results taken from patent US20110136792A1, “NOVEL CARBOXYLIC ACID ANALOGS AS GLYCOGEN SYNTHASE ACTIVATORS” (priority 2009, published 2011).

System: glycogen synthase
Assay: Glycogen Synthase (GS) Assay
Format: biochemical
Details: coupled pyruvate kinase/lactate dehydrogenase assay, absorbance at 340 nm; for EC50: compound concentration needed to give 50% maximum activation; for GS SC200: compound concentration needed to stimulate 200% of the enzyme activity
Experimental: The following tests were carried out in order to determine the activity of the compounds of formula (I).
Twelve μL per well of substrate solution containing glycogen (4.32 mg/ml), 2.67 mM UDP-glucose, 21.6 mM phospho(enol)pyruvate and 2.7 mM NADH in 30 mM glycylglycine, pH 7.3 buffer was added into a polystyrene 384-well assay plate (BD Biosciences).
Compound solutions (8 μL/well) at various concentrations (0-300 μM) were added to the assay plate (columns 5-24). Compound solution contains 30 mM glycylglycine, pH 7.3, 40 mM KCl, 20 mM MgCl2, 9.2% DMSO, with (columns 15-24) or without (columns 5-14) 20 mM glucose 6-phosphate.
Enzyme solution (12 μL/well) containing glycogen synthase (16.88 μg/ml), pyruvate kinase (0.27 mg/ml), lactate dehydrogenase (0.27 mg/ml) in 50 mM Tris-HCl, pH 8.0, 27 mM DTT and bovine serum albumin (BSA, 0.2 mg/ml) was added to the assay plate (columns 3-24). As a blank control, enzyme solution without glycogen synthase was added into the top half wells of columns 1-2. To the bottom half wells of columns 1-2 were added a known activator, glucose 6-phosphate (at final concentration 5 mM) in addition to the enzyme solution. The reaction mixture was incubated at room temperature. The assay plate was then read for absorbance at 340 nm on an Envision reader every 3 minutes up to a total of 15 minutes.
The enzyme activity (with or without compound) was calculated by the reaction rate and represented by the optical density change (δOD) per minute. Percent stimulation of glycogen synthase activity by a compound at various concentrations was calculated by the following formula: […]
Where Rs is the reaction rate of the enzyme in the presence of compound and Rt is the reaction rate of the enzyme in the absence of compound.
SC200 is defined as the compound concentration that is needed to stimulate 200% of the enzyme activity. EC50 is defined as the compound concentration that is needed to give 50% maximum activation.
Compounds from Examples 1 through Example 64 were assayed according to assay procedures described above and the result is listed in Table 1 below: […]

EC50 | Compound | GS SC200
180 nM | O=C(O)C1CCS(=O)(=O)N1Cc1cc(COc2ccc(-c3ccc(F)cc3F)cc2)ccc1F (centres unmarked) [Example 42, 2-[5-(2′,4′-Difluoro-biphenyl-4-yloxymethyl)-2-fluoro-benzyl]-1,1-dioxo-1lambda*6*-isothiazolidine-3-carboxylic acid] | 0.06 µM
470 nM | COc1cc(F)c(F)cc1-c1ccc(OCc2cccc(CN(CC(=O)O)C(=O)OC(C)C)c2)cc1 [Example 6, {[3-(4′,5′-Difluoro-2′-methoxy-biphenyl-4-yloxymethyl)-benzyl]-isopropoxycarbonyl-amino}-acetic acid] | 0.03 µM
1460 nM | COc1cc(F)c(F)cc1-c1ccc(OCc2cccc(CN(CC(=O)O)Cc3ccccc3)c2)cc1 [Example 35, {Benzyl-[3-(4′,5′-difluoro-2′-methoxy-biphenyl-4-yloxymethyl)-benzyl]-amino}-acetic acid] | 0.46 µM
110 nM | COc1cc(F)c(F)cc1-c1ccc(OCc2cccc(CN3[C@H](C(=O)O)CCCS3(=O)=O)c2)cc1 [Example 56, (S)-2-[3-(4′,5′-Difluoro-2′-methoxy-biphenyl-4-yloxymethyl)-benzyl]-1,1-dioxo-1lambda*6*-[1,2]thiazinane-3-carboxylic acid] | 0.04 µM
340 nM | COc1cc(F)c(F)cc1-c1ccc(OCc2cccc(CN(CC(=O)O)C(=O)c3cn(C)cn3)c2)cc1 [Example 29, [[3-(4′,5′-Difluoro-2′-methoxy-biphenyl-4-yloxymethyl)-benzyl]-(1-methyl-1H-imidazole-4-carbonyl)-amino]-acetic acid] | 0.01 µM
520 nM | COc1cc(F)c(F)cc1-c1ccc(OCc2cccc(CN(CC(=O)O)S(=O)(=O)C3CC3)c2)cc1 [Example 9, {Cyclopropanesulfonyl-[3-(4′,5′-difluoro-2′-methoxy-biphenyl-4-yloxymethyl)-benzyl]-amino}-acetic acid] | 0.06 µM
2190 nM | O=C(O)[C@@H]1CCS(=O)(=O)N1Cc1csc(COc2ccc(-c3cc(F)c(F)cc3F)cc2)n1 [Example 60, (S)-1,1-Dioxo-2-[2-(2′,4′,5′-trifluoro-biphenyl-4-yloxymethyl)-thiazol-4-ylmethyl]-1lambda*6*-isothiazolidine-3-carboxylic acid] | 1.74 µM
410 nM | COCC(=O)N(CC(=O)O)Cc1cccc(COc2ccc(-c3cc(F)c(F)cc3OC)cc2)c1 [Example 28, [[3-(4′,5′-Difluoro-2′-methoxy-biphenyl-4-yloxymethyl)-benzyl]-(2-methoxy-acetyl)-amino]-acetic acid] | 0.06 µM
160 nM | CCS(=O)(=O)N(CC(=O)O)Cc1cccc(COc2ccc(-c3cc(F)c(F)cc3F)cc2)c1 [Example 18, {Ethanesulfonyl-[3-(2′,4′,5′-trifluoro-biphenyl-4-yloxymethyl)-benzyl]-amino}-acetic acid] | 0.07 µM
330 nM | COc1cc(F)c(F)cc1-c1ccc(OCc2cccc(CN3[C@@H](C(=O)O)CCCS3(=O)=O)c2)cc1 [Example 55, (R)-2-[3-(4′,5′-Difluoro-2′-methoxy-biphenyl-4-yloxymethyl)-benzyl]-1,1-dioxo-1lambda*6*-[1,2]thiazinane-3-carboxylic acid] | 0.16 µM
470 nM | COc1cc(F)c(F)cc1-c1ccc(OCc2cccc(CN(CC(=O)O)C(=O)c3cccnc3)c2)cc1 [Example 30, [[3-(4′,5′-difluoro-2′-methoxy-biphenyl-4-yloxymethyl)-benzyl]-(pyridine-3-carbonyl)-amino]-acetic acid] | 0.04 µM
450 nM | COc1cc(F)c(F)cc1-c1ccc(OCc2cccc(CN(CC(=O)O)C(=O)c3ccccc3)c2)cc1 [Example 5, {Benzoyl-[3-(4′,5′-difluoro-2′-methoxy-biphenyl-4-yloxymethyl)-benzyl]-amino}-acetic acid] | 0.09 µM
130 nM | O=C(O)C1CCS(=O)(=O)N1Cc1cccc(COc2ccc(-c3cc(F)c(F)cc3F)cc2)c1 (racemic) [Example 38, 1,1-Dioxo-2-[3-(2′,4′,5′-trifluoro-biphenyl-4-yloxymethyl)-benzyl]-1lambda*6*-isothiazolidine-3-carboxylic acid] | 0.05 µM
120 nM | COc1cc(F)c(F)cc1-c1ccc(OCc2cccc(CN3[C@H](C(=O)O)CCS3(=O)=O)c2)cc1 [Example 45, (S)-2-[3-(4′,5′-Difluoro-2′-methoxy-biphenyl-4-yloxymethyl)-benzyl]-1,1-dioxo-1lambda*6*-isothiazolidine-3-carboxylic acid] | 0.02 µM
60 nM | O=C(O)[C@@H]1CCCS(=O)(=O)N1Cc1cccc(COc2ccc(-c3cc(F)c(F)cc3F)cc2)c1 [Example 58, (S)-1,1-Dioxo-2-[3-(2′,4′,5′-trifluoro-biphenyl-4-yloxymethyl)-benzyl]-1lambda*6*-[1,2]thiazinane-3-carboxylic acid] | 0.04 µM
690 nM | COc1cc(F)c(F)cc1-c1ccc(OCc2cccc(CN(CC(=O)O)C(=O)N3CCOCC3)c2)cc1 [Example 3, [[3-(4′,5′-Difluoro-2′-methoxy-biphenyl-4-yloxymethyl)-benzyl]-(morpholine-4-carbonyl)-amino]-acetic acid] | 0.11 µM
150 nM | O=C(O)C1CCS(=O)(=O)N1Cc1ccc(F)c(COc2ccc(-c3ccc(F)cc3F)cc2)c1 (centres unmarked) [Example 41, 2-[3-(2′,4′-Difluoro-biphenyl-4-yloxymethyl)-4-fluoro-benzyl]-1,1-dioxo-1lambda*6*-isothiazolidine-3-carboxylic acid] | 0.07 µM
720 nM | COc1cc(F)c(F)cc1-c1ccc(OCc2cccc(CN(CC(=O)O)C(=O)C3CCC3)c2)cc1 [Example 4, {Cyclobutanecarbonyl-[3-(4′,5′-difluoro-2′-methoxy-biphenyl-4-yloxymethyl)-benzyl]-amino}-acetic acid] | 0.18 µM
520 nM | COc1cc(F)c(F)cc1-c1ccc(OCc2cccc(CN(CC(=O)O)C(=O)c3cscn3)c2)cc1 [Example 27, [[3-(4′,5′-Difluoro-2′-methoxy-biphenyl-4-yloxymethyl)-benzyl]-(thiazole-4-carbonyl)-amino]-acetic acid] | 0.08 µM
430 nM | COc1cc(F)c(F)cc1-c1ccc(OCc2nc(CN3[C@H](C(=O)O)CCS3(=O)=O)cs2)cc1 [Example 62, (S)-2-[2-(4′,5′-Difluoro-2′-methoxy-biphenyl-4-yloxymethyl)-thiazol-4-ylmethyl]-1,1-dioxo-1lambda*6*-isothiazolidine-3-carboxylic acid] | 0.26 µM
4900 nM | COc1cc(F)c(F)cc1-c1ccc(OCc2cccc(CNCC(=O)O)c2)cc1.Cl [Example 37, [3-(4′,5′-Difluoro-2′-methoxy-biphenyl-4-yloxymethyl)-benzylamino]-acetic acid] | 0.38 µM
200 nM | O=C(O)C1CCS(=O)(=O)N1Cc1cccc(COc2ccc(-c3cc(F)c(F)cc3Cl)cc2)c1 (racemic) [Example 40, 2-[3-(2′-Chloro-4′,5′-difluoro-biphenyl-4-yloxymethyl)-benzyl]-1,1-dioxo-1lambda*6*-isothiazolidine-3-carboxylic acid] | 0.04 µM
1820 nM | O=C(O)[C@H]1CCS(=O)(=O)N1Cc1cccc(COc2ccc(-c3cc(F)c(F)cc3F)cc2)c1 [Example 47, (R)-1,1-Dioxo-2-[3-(2′,4′,5′-trifluoro-biphenyl-4-yloxymethyl)-benzyl]-1lambda*6*-isothiazolidine-3-carboxylic acid] | 0.62 µM
1170 nM | COc1cc(F)c(F)cc1-c1ccc(OCc2nc(CN3[C@@H](C(=O)O)CCS3(=O)=O)cs2)cc1 [Example 61, (R)-2-[2-(4′,5′-Difluoro-2′-methoxy-biphenyl-4-yloxymethyl)-thiazol-4-ylmethyl]-1,1-dioxo-1lambda*6*-isothiazolidine-3-carboxylic acid] | 0.78 µM
110 nM | Cc1cc(F)c(F)cc1-c1ccc(OCc2cccc(CN3[C@H](C(=O)O)CCS3(=O)=O)c2)cc1 [Example 48, (S)-2-[3-(4′,5′-Difluoro-2′-methyl-biphenyl-4-yloxymethyl)-benzyl]-1,1-dioxo-1lambda*6*-isothiazolidine-3-carboxylic acid] | 0.01 µM
